Assays:
Sagittaria pygmaea, L. [1] = test: Postemergence weed control under flooded paddy conditions, SAGPY (Arrowhead (Pygmaea)); type: in vivo; conditions: rated three to four weeks after treatment
[2] = system: Monochoria vaginalis, Presl.; test: Preemergence weed control under flooded paddy conditions, MOOVA (Monochoria); type: in vivo; conditions: preemergence weeds, flooded paddy, herbicidal effect rating 0-9, three to four weeks after treatment
Sagittaria pygmaea, L. [3] = test: Preemergence weed control under flooded paddy conditions, SAGPY (Arrowhead (Pygmaea)); type: in vivo; conditions: preemergence weeds, flooded paddy, herbicidal effect rating 0-9, three to four weeks after treatment
[4] = system: Cyperus serotinus, Rottb.; test: Postemergence weed control under flooded paddy conditions, CYPSE (Flatsedge); type: in vivo; conditions: rated three to four weeks after treatment
Cyperus iria [5] = test: Preemergence weed control under flooded paddy conditions, CYPIR (Rice Flatsedge); type: in vivo; conditions: preemergence weeds, flooded paddy, herbicidal effect rating 0-9, three to four weeks after treatment
[6] = system: Monochoria vaginalis, Presl.; test: Postemergence weed control under flooded paddy conditions, MOOVA (Monochoria); type: in vivo; conditions: rated three to four weeks after treatment
[7] = system: Echinochloa oryzoides (Ard.) Fritsch.; test: Preemergence weed control under flooded paddy conditions, ECHORC (Watergrass (Calif.)); type: in vivo; conditions: preemergence weeds, flooded paddy, herbicidal effect rating 0-9, three to four weeks after treatment
[8] = system: Cyperus serotinus, Rottb.; test: Preemergence weed control under flooded paddy conditions, CYPSE (Flatsedge); type: in vivo; conditions: preemergence weeds, herbicidal effect rating 0-9, three to four weeks after treatment
[9] = system: Oryza sativa, (L.) Tebonnet; test: Rice tolerance to post-transplant applications under flooded paddy conditions (Example 188), ORYSAT (Rice, Tebonnet); conditions: rated three to four weeks after treatment
Cyperus iria [10] = test: Postemergence weed control under flooded paddy conditions, CYPIR (Rice Flatsedge); type: in vivo; conditions: rated three to four weeks after treatment
[11] = system: Oryza sativa, (L.) Tebonnet; test: Rice tolerance to post-transplant applications under flooded paddy conditions (Example 187), ORYSAT (Rice, Tebonnet); conditions: herbicidal effect rating 0-9, three to four weeks after treatment
[12] = system: Echinochloa oryzoides (Ard.) Fritsch.; test: Postemergence weed control under flooded paddy conditions, ECHORC (Watergrass (Calif.)); type: in vivo; conditions: rated three to four weeks after treatment

Q: `CCC(C#N)(CC)c1nsc2ccc(-n3c(=O)cc(C(F)(F)F)n(C)c3=O)cc12` [Example 445, 1,2-Benzisothiazole-3-acetonitrile, 5-[3,6-dihydro-3-methyl-2,6-dioxo-4-(trifluoromethyl)-1(2H)-pyrimidinyl]-alpha,alpha-diethyl-] was tested. Which “herbicidal effect rating, SAGPY” value (Sagittaria pygmaea, L. [1]; Rate 0.0320 kg/ha) did it give?
A: 0.0

Q: What about the “herbicidal effect rating, SAGPY” value (Sagittaria pygmaea, L. [1]; Rate 0.0620 kg/ha) of the same compound?
A: 0.0

Q: What about the “herbicidal effect rating, SAGPY” value (Sagittaria pygmaea, L. [1]; Rate 0.1250 kg/ha) of the same compound?
A: 4.0

Q: What about the “herbicidal effect rating, SAGPY” value (Sagittaria pygmaea, L. [1]; Rate 0.2500 kg/ha) of the same compound?
A: 9.0

Q: What about the MOOVA ([2]; 0.0320 kg/ha) of the same compound?
A: 9.0

Q: What about the MOOVA ([2]; 0.0620 kg/ha) of the same compound?
A: 9.0

Q: And the MOOVA ([2]; 0.1250 kg/ha)?
A: 9.0

Q: What about the MOOVA ([2]; 0.2500 kg/ha) of the same compound?
A: 9.0

Q: And the SAGPY (Sagittaria pygmaea, L. [3]; 0.0320 kg/ha)?
A: 4.5

Q: And the SAGPY (Sagittaria pygmaea, L. [3]; 0.0620 kg/ha)?
A: 8.0

Q: What about the SAGPY (Sagittaria pygmaea, L. [3]; 0.1250 kg/ha) of the same compound?
A: 8.5

Q: What about the SAGPY (Sagittaria pygmaea, L. [3]; 0.2500 kg/ha) of the same compound?
A: 9.0

Q: And the “herbicidal effect rating, CYPSE” value ([4]; Rate 0.0320 kg/ha)?
A: 0.0

Q: And the “herbicidal effect rating, CYPSE” value ([4]; Rate 0.0620 kg/ha)?
A: 2.0

Q: And the “herbicidal effect rating, CYPSE” value ([4]; Rate 0.1250 kg/ha)?
A: 4.0

Q: And the “herbicidal effect rating, CYPSE” value ([4]; Rate 0.2500 kg/ha)?
A: 4.0

Q: And the CYPIR (Cyperus iria [5]; 0.0320 kg/ha)?
A: 6.5

Q: What about the CYPIR (Cyperus iria [5]; 0.0620 kg/ha) of the same compound?
A: 8.0

Q: What about the CYPIR (Cyperus iria [5]; 0.1250 kg/ha) of the same compound?
A: 9.0

Q: What about the CYPIR (Cyperus iria [5]; 0.2500 kg/ha) of the same compound?
A: 9.0

Q: What about the “herbicidal effect rating, MOOVA” value ([6]; Rate 0.0320 kg/ha) of the same compound?
A: 0.0

Q: What about the “herbicidal effect rating, MOOVA” value ([6]; Rate 0.0620 kg/ha) of the same compound?
A: 0.0

Q: And the “herbicidal effect rating, MOOVA” value ([6]; Rate 0.1250 kg/ha)?
A: 2.0

Q: And the “herbicidal effect rating, MOOVA” value ([6]; Rate 0.2500 kg/ha)?
A: 9.0

Q: And the ECHORC ([7]; 0.0320 kg/ha)?
A: 8.5

Q: What about the ECHORC ([7]; 0.0620 kg/ha) of the same compound?
A: 8.5

Q: And the ECHORC ([7]; 0.1250 kg/ha)?
A: 9.0

Q: And the ECHORC ([7]; 0.2500 kg/ha)?
A: 9.0

Q: And the CYPSE ([8]; 0.0320 kg/ha)?
A: 7.5

Q: What about the CYPSE ([8]; 0.0620 kg/ha) of the same compound?
A: 8.5

Q: And the CYPSE ([8]; 0.1250 kg/ha)?
A: 8.0

Q: And the CYPSE ([8]; 0.2500 kg/ha)?
A: 8.5

Q: And the “herbicidal effect rating, ORYSAT (rice tolerance)” value (shortened to “herbicidal effect rating, ORYSAT”) ([9]; Rate 0.0320 kg/ha)?
A: 3.0

Q: What about the “herbicidal effect rating, ORYSAT” value ([9]; Rate 0.0620 kg/ha) of the same compound?
A: 6.0

Q: What about the “herbicidal effect rating, ORYSAT” value ([9]; Rate 0.1250 kg/ha) of the same compound?
A: 7.0

Q: And the “herbicidal effect rating, ORYSAT” value ([9]; Rate 0.2500 kg/ha)?
A: 7.0

Q: What about the “herbicidal effect rating, CYPIR” value (Cyperus iria [10]; Rate 0.0320 kg/ha) of the same compound?
A: 4.0

Q: And the “herbicidal effect rating, CYPIR” value (Cyperus iria [10]; Rate 0.0620 kg/ha)?
A: 7.0

Q: What about the “herbicidal effect rating, CYPIR” value (Cyperus iria [10]; Rate 0.1250 kg/ha) of the same compound?
A: 9.0

Q: What about the “herbicidal effect rating, CYPIR” value (Cyperus iria [10]; Rate 0.2500 kg/ha) of the same compound?
A: 9.0

Q: What about the ORYSAT ([11]; 0.0320 kg/ha) of the same compound?
A: 5.0

Q: What about the ORYSAT ([11]; 0.0620 kg/ha) of the same compound?
A: 6.5

Q: And the ORYSAT ([11]; 0.1250 kg/ha)?
A: 7.0

Q: And the ORYSAT ([11]; 0.2500 kg/ha)?
A: 8.0

Q: And the “herbicidal effect rating, ECHORC” value ([12]; Rate 0.0320 kg/ha)?
A: 4.0

Q: What about the “herbicidal effect rating, ECHORC” value ([12]; Rate 0.0620 kg/ha) of the same compound?
A: 7.0

Q: What about the “herbicidal effect rating, ECHORC” value ([12]; Rate 0.1250 kg/ha) of the same compound?
A: 9.0

Q: And the “herbicidal effect rating, ECHORC” value ([12]; Rate 0.2500 kg/ha)?
A: 9.0

— patent EP0908457B1, “3-(1,2-benzisothiazol- and isoxazol-5-Y1)-2,4(1H,3H)-pyrimidinedione or thione and 3-(1,2-benzisothiazol- and isoxazol-5-y1)-4(3H)-pyrimidinone or thione herbicidal agents” (BASF AKTIENGESELLSCHAFT, priority 1997, dated 1999)
